These results are taken from publication PMC11299522 (Journal of medicinal chemistry, 2023).

The test system of one assay is μOR. Particulars: cited from earlier work.
Assay [1] has as its system wild-type (WT) HEK293 cells. As to the kind of experiment: Pink Flamindo cAMP assay control in wild-type HEK293 cells lacking μORs. The class given is cell-based. Particulars: compound 1 μM, AUC analysis, n = 3.

Consider “[D-Ala,[2] N-MePhe,[4] Gly-ol]-enkephalin [DAMGO]”, for which, in the assay on μOR, the EC100 is reported as 250 nM.

For `C=C(C)[C@@H]1CCC(C)=C[C@H]1c1c(O)cc(CCCCC)cc1O` [JGC1, (1′R,2′R)-5′-Methyl-4-pentyl-2′-(prop-1-en-2-yl)-1′,2′,3′,4′-tetrahydro-[1,1′-biphenyl]-2,6-diol], the “effect on cAMP accumulation in the absence of the hμOR” value in assay [1] is reported as “do not impact cAMP accumulation”.
